What was measured:
[1] = target: T1, Peripheral plasma membrane protein CASK (Homo sapiens) (UniProt O14936); test: CASK SGC Tm panel (DSF); details: for ΔTm: Compound concentration 10.0 uM
T1 sequence (whole entry): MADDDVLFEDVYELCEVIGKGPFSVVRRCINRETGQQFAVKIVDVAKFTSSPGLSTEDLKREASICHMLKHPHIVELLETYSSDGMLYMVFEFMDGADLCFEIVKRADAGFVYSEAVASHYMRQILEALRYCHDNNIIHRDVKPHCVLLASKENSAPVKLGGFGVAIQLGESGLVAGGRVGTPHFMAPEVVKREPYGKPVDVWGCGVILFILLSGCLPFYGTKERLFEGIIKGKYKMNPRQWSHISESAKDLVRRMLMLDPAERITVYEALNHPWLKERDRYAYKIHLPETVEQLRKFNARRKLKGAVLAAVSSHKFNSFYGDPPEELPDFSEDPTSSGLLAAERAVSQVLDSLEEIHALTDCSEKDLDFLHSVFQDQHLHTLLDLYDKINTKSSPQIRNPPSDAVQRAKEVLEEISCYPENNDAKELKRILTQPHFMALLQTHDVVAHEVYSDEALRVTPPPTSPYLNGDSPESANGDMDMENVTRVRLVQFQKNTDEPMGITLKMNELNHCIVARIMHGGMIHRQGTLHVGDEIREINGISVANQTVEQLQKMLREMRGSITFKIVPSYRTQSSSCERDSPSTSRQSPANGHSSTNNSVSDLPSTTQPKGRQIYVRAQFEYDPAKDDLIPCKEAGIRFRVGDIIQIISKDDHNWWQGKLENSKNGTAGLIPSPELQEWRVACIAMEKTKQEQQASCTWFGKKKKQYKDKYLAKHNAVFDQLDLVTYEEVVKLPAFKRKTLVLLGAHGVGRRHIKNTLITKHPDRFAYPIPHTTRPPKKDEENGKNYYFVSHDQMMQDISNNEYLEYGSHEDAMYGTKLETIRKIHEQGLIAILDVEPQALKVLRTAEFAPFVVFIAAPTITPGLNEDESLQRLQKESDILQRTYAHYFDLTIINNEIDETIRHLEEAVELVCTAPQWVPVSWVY

[2] = target: RAC-gamma serine/threonine-protein kinase (Homo sapiens) (UniProt Q9Y243); test: AKT3 SGC Tm panel (DSF); details: for ΔTm: Compound concentration 10.0 uM
[3] = target: STE20/SPS1-related proline-alanine-rich protein kinase (Homo sapiens) (UniProt Q9UEW8); test: STK39 SGC Tm panel (DSF); details: for ΔTm: Compound concentration 10.0 uM
[4] = target: T2, Bone morphogenetic protein receptor type-2 (Homo sapiens) (UniProt Q13873); test: BMPR2 SGC Tm panel (DSF); details: for ΔTm: Compound concentration 10.0 uM
T2 sequence (whole entry): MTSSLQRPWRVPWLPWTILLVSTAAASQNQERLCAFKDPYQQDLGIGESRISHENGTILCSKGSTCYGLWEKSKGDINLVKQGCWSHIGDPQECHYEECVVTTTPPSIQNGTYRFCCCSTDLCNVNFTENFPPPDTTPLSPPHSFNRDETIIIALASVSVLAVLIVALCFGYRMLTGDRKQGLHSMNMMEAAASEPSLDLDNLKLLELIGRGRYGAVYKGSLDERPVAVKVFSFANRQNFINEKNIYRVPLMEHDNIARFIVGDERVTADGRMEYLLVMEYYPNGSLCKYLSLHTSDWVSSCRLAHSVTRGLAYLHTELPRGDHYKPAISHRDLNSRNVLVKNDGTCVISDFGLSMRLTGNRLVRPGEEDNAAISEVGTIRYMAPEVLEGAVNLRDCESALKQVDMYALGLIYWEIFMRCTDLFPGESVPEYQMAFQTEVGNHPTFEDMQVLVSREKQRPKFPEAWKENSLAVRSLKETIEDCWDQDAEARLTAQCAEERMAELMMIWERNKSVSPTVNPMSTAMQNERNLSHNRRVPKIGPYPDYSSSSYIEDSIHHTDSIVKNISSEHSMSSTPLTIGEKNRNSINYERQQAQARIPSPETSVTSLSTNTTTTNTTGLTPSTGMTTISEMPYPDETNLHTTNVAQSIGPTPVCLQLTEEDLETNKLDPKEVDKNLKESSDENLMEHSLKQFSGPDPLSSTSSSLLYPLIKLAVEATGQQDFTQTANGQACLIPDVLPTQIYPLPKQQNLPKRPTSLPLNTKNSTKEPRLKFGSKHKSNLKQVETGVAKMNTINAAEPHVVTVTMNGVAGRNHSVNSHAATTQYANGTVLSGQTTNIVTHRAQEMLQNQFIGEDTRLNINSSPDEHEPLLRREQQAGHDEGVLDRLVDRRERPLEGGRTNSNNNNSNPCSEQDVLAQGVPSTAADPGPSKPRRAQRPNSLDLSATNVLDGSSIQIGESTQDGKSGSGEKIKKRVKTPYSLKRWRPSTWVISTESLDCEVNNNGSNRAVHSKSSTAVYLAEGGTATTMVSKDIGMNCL

[5] = target: 5-hydroxytryptamine receptor 7 (Homo sapiens) (UniProt P34969); details: Compound concentration 10.0 uM
[6] = target: T3, Muscarinic acetylcholine receptor M2 (Homo sapiens) (UniProt P08172); details: Compound concentration 10.0 uM
T3 sequence (whole entry): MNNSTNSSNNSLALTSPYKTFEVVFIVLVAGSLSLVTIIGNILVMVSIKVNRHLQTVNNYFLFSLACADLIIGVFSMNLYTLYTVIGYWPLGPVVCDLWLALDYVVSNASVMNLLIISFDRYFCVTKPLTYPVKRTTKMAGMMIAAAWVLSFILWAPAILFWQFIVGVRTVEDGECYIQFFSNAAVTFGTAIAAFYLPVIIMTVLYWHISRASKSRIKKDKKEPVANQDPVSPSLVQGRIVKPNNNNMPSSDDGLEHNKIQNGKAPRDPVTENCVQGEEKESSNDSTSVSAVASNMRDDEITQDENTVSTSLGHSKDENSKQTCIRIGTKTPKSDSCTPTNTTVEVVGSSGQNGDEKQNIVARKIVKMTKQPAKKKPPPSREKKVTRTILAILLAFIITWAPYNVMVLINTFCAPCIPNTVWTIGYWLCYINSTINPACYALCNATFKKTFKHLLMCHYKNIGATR

[7] = target: 5-hydroxytryptamine receptor 2B (Homo sapiens) (UniProt P41595); details: Compound concentration 10.0 uM
Sequence of 5-hydroxytryptamine receptor 2B (Homo sapiens) (P41595 whole entry): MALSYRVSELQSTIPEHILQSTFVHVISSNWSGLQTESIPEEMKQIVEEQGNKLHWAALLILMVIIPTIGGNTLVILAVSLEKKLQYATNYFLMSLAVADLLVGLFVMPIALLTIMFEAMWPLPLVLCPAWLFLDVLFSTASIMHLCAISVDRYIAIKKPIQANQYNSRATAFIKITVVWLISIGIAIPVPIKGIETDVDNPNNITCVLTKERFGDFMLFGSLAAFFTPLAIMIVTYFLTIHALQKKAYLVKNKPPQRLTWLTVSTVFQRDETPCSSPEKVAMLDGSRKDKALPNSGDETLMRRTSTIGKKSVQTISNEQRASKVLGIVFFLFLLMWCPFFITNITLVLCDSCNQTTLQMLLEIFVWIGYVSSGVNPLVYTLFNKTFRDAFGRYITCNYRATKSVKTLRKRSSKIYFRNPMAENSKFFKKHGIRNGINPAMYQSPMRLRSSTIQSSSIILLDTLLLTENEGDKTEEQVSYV

Sequence of 5-hydroxytryptamine receptor 7 (Homo sapiens) (P34969 whole entry): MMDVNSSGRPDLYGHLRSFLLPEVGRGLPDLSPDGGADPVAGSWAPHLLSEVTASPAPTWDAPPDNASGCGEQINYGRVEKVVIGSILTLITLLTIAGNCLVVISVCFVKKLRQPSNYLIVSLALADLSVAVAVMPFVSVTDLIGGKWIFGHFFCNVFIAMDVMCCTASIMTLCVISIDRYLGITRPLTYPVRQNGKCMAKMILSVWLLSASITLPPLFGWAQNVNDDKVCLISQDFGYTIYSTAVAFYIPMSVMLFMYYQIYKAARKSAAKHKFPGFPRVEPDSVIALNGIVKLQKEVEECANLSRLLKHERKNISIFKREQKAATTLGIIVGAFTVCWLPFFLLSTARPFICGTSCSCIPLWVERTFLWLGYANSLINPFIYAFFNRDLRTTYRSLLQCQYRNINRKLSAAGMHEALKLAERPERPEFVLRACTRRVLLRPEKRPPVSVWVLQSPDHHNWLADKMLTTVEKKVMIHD
Sequence of RAC-gamma serine/threonine-protein kinase (Homo sapiens) (Q9Y243 whole entry): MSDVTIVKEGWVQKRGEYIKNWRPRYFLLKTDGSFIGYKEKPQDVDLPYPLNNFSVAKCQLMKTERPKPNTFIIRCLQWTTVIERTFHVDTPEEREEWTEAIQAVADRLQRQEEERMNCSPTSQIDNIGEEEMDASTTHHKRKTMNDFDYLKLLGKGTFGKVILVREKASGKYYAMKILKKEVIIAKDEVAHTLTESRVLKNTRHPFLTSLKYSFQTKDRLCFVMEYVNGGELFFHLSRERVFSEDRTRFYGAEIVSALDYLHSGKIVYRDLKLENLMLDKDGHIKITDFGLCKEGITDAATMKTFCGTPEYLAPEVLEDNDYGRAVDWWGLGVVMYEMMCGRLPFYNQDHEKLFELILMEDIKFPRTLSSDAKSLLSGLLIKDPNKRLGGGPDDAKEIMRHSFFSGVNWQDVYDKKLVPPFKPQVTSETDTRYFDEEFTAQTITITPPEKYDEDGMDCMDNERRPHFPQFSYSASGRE

Row | SMILES | delta Tm Staurosporine positive control [1] | ΔTm [1] | delta Tm Staurosporine positive control [2] | ΔTm [2] | delta Tm Staurosporine positive control [3] | ΔTm [3] | delta Tm Staurosporine positive control [4] | ΔTm [4] | inhibition [5] [%] | inhibition [6] [%] | inhibition [7] [%]
1 | CCC[C@H]1CNCc2c1[nH]c(=O)c(C#N)c2N1CCC2(CC1)CC2 | 4.28 | -0.242 | 7.15 | -0.443 | 9.01 | -0.273 | 3.02 | 0.146 | 16.3 | -1.19 | 44.9
2 | CCC[C@@H]1CNCc2c1[nH]c(=O)c(C#N)c2N1CCC2(CC1)CC2 | 4.28 | -0.0745 | 7.15 | -0.39 | 9.01 | -0.455 | 3.02 | 0.0735 | -2.3 | 2.48 | 33

Source: ChEMBL document CHEMBL5303765, “Data for DCP probe BAY-7081” (2023)
